# From paper PMC3335078, “Length and Amino Acid Sequence of Peptides Substituted for the 5-HT3A Receptor M3M4 Loop May Affect Channel Expression and Desensitization” (PLoS ONE, 2012)
# Tested on: 5-HT3A-QDA receptor
# Experiment: Outside-out patch clamp of transfected HEK293 cells, effect of ondansetron on 5-HT activated channels
# Type: cell-based
# Conditions: 1 µM ondansetron with 5-HT, -60 mV, data not shown
# Procedure: HEK293 cells (CRL-1573, ATCC, Manassas, VA) seeded at low density on poly-lysine-coated, 12 mm, thin glass coverslips were transfected 24 h later using a modified calcium-phosphate precipitation technique with 500 ng DNA per well. After 12 h, cells were rinsed with fresh medium (DMEM supplemented with 10% FBS+100 Units ml^-1 penicillin+100 μg ml^-1 streptomycin+4 mM L-glutamine) and incubated at 28°C [34]. Recordings were performed 24-48 h later. For patch clamp experiments the coverslips were mounted on an inverted Zeiss IM microscope equipped with epifluorescent illumination. Cells expressing the GFP reporter were selected for patch clamp recording. Pipettes pulled from borosilicate glass capillaries ([…]-10, Harvard Apparatus Inc., Holliston, MA) with a tip resistance of 8-13 MΩ when filled with intracellular solution. The recordings were done using outside-out and cell-attached patch configurations. Data was acquired with an EPC9 amplifier using Pulse software, v8.65 (HEKA Instruments Inc., Bellmore, NY). Data were sampled at 20 kHz and filtered at 10 kHz. All point histograms and fits with a sum of two or three Gaussian functions were performed using the Levenberg-Marquardt algorithm implemented in Qub software. […] Effects of ondansetron were determined in the outside-out recording configuration at a holding potential of -60 mV.
smiles,measurement,value
"Cc1nccn1CC1CCc2c(c3ccccc3n2C)C1=O (stereo not shown) [ondansetron, Ondansetron]",Block of 5-HT activated single channels,no similar channels were observed
